# Experimental data from US20050112260A1, “Monatin tabletop sweetener compositions and methods of making same” (Cargill, Inc., priority 2003, published 2005).
# Residues, ends and D or L forms follow the SMILES beside them.
# How the values were obtained:
# [1] = Sweetness relative to sucrose, panel of trained sensory evaluators, dose response curve; type: in vivo; conditions: slope of dose response curve at 8% sucrose equivalence value (SEV)
# Experimental: One assesses sweetness of a sweetener relative to sucrose by using a panel of trained sensory evaluators experienced in the sweetness estimation procedure. All samples (in same buffers) are served in duplicate at a temperature of 22° C.±1° C. Test solutions, coded with 3 digit random number codes, are presented individually to panelists, in random order. Sucrose reference standards, ranging from 4.0-10.0% (w/v) sucrose, increasing in steps of 0.5% (w/v) sucrose are also provided. Panelists are asked to estimate sweetness by comparing the sweetness of the test solution to the sucrose standards. […] Using information obtained from the panelists, the sweetness intensity or potency is calculated by dividing sucrose equivalent value (SEV) (e.g., % sucrose) by the % monatin at a particular point in a dose response curve.
# The S,S stereoisomer of monatin is approximately 50-200 times sweeter than sucrose by weight. […] As discussed above, the sweetness of the monatin is calculated using experienced sensory evaluators in a sweetness comparison procedure, where a test sweetener solution is matched for sweetness intensity against one of a series of reference solutions. […] The intensity sweetness is calculated as the slope in a dose response curve, where the % sucrose is divided by the % monatin. […]
# [2] = Sensory evaluation of table-top sweeteners in coffee and iced tea (panel n=6); type: in vivo; conditions: 200 ml serving
# Experimental: Monatin table-top formulations, including R,R monatin or R,R monatin/erythritol combinations, were assessed relative to other known sweeteners (aspartame and sucralose) in coffee and iced tea. The key sensory parameters assessed included sweetness quality, aftertaste, bitter taste and its aftertaste. Qualitative evaluation has been carried out.
# Standard coffee was used in which to evaluate sweetener performance (Table 7).
# Sweeteners were added to coffee at the following concentrations: • Aspartame 0.025% (w/v) • Sucralose 0.0082% (w/v) • R,R monatin* 0.0020, 0.0025, 0.0030% (w/v) plus 1 g maltodextrin • R,R monatin/erythritol 0.0020, 0.0025, 0.0030% (w/v) plus 1 g erythritol (ii) Iced Tea
# An ice tea formulation was developed to evaluate sweetener performance (Table 8).
# Sweeteners were added to tea at the following concentrations:
# The evaluation of these coffee and tea drinks was carried out by a small (n=6) panel of experienced sensory evaluators who evaluated the coffee products on one tasting occasion and the tea products on a subsequent occasion.
# [3] = Sensory stability of monatin and aspartame at pH 2.5, 3.0, 4.0 at 40° C. (sweetness vs sucrose standards, panel n=8); type: physicochemical; conditions: for Rate constant (k; day^−1) of sweetness loss: pseudo-first order assumed
# Experimental: The sensory stability of monatin solutions prepared at pH 2.5, 3.0 and 4.0 and stored at 40° C. was monitored for 100 days. Loss of sweetness from these solutions was compared with the losses of sweetness from aspartame solutions prepared and stored under identical conditions.
# The sensory stability of monatin (8% SEV, ˜55 ppm, synthetic blend containing approximately 96% of the 2R,4R/2S, 4S enantiometric pair and 4% of the 2R,4S/2S,4R enantiometric pair) in phosphate/citrate buffers having a pH of 2.5, 3.0, and 4.0 was examined after storage at 40° C. The stability of monatin was compared to that of aspartame (400 ppm) in the same buffers. Three sucrose reference solutions were prepared in the same phosphate/citrate buffers as the monatin and aspartame solutions. All prepared solutions were stored in the dark.
# • pH2.5 Phosphoric acid (75% solution) 0.127% (w/v) • Tri-sodium citrate monohydrate 0.005% (w/v) • pH3.0 Phosphoric acid (75% solution) 0.092% (w/v) • Tri-sodium citrate monohydrate 0.031% (w/v) • pH4.0 Phosphoric acid (75% solution) 0.071% (w/v) • Tri-sodium citrate monohydrate 0.047% (w/v)
# The sweetness of each sweetener relative to sucrose was assessed in duplicate by a small panel (n=8) of trained sensory evaluators experienced in the sweetness estimation procedure. All samples (in the same buffers) were served in duplicate at a temperature of 22° C.±1° C. Monatin (test) solutions, coded with 3 digit random number codes were presented individually to panelists, in random order. Sucrose reference standards, ranging from 4.0-10.0% (w/v) sucrose, increasing in steps of 0.5% (w/v) sucrose were also provided. Panelists were asked to estimate sweetness by comparing the sweetness of the test solution to the sucrose standards. This was carried out by taking 3 sips of the test solution, followed by a sip of water, followed by 3 sips of sucrose standard followed by a sip of water, etc. Panelists were encouraged to estimate the sweetness to one decimal place, e.g., 6.8, 8.5. A five minute rest period was imposed between evaluating the test solutions. Panelists were also asked to rinse well and eat a cracker to reduce any potential carry over effects.
# If a pseudo-first order breakdown reaction is assumed, a plot of logn percentage retention versus time (logn% RTN v. t) allows estimation of the half-life (t½) and rate constant (k) of sweetness loss under any given set of conditions. In so doing, the kinetics of monatin and aspartame sweetness loss may be summarized as follows in Table 13.
# [4] = pH 2.5, 40° C., day 1, aspartame 400 ppm
# [5] = pH 2.5, 40° C., day 2, aspartame 400 ppm
# [6] = pH 2.5, 40° C., day 3, aspartame 400 ppm
# [7] = pH 2.5, 40° C., day 4, aspartame 400 ppm
# [8] = pH 2.5, 40° C., day 7, aspartame 400 ppm
# [9] = pH 2.5, 40° C., day 8, aspartame 400 ppm
# [10] = pH 2.5, 40° C., day 9, aspartame 400 ppm
# [11] = pH 2.5, 40° C., day 11, aspartame 400 ppm
# [12] = pH 2.5, 40° C., day 50, aspartame 400 ppm
# [13] = pH 2.5, 40° C., day 100, aspartame 400 ppm
# [14] = pH 3.0, 40° C., day 1, aspartame 400 ppm
# [15] = pH 3.0, 40° C., day 2, aspartame 400 ppm
# [16] = pH 3.0, 40° C., day 3, aspartame 400 ppm
# [17] = pH 3.0, 40° C., day 4, aspartame 400 ppm
# [18] = pH 3.0, 40° C., day 7, aspartame 400 ppm
# [19] = pH 3.0, 40° C., day 8, aspartame 400 ppm
# [20] = pH 3.0, 40° C., day 9, aspartame 400 ppm
# [21] = pH 3.0, 40° C., day 11, aspartame 400 ppm
# [22] = pH 3.0, 40° C., day 50, aspartame 400 ppm
# [23] = pH 3.0, 40° C., day 100, aspartame 400 ppm
# [24] = pH 4.0, 40° C., day 3, aspartame 400 ppm
# [25] = pH 4.0, 40° C., day 8, aspartame 400 ppm
# [26] = pH 4.0, 40° C., day 11, aspartame 400 ppm
# [27] = pH 4.0, 40° C., day 17, aspartame 400 ppm
# [28] = pH 4.0, 40° C., day 24, aspartame 400 ppm
# [29] = pH 4.0, 40° C., day 50, aspartame 400 ppm
# [30] = pH 4.0, 40° C., day 100, aspartame 400 ppm
smiles,measurement,setting,value
"N[C@H](C[C@](O)(Cc1c[nH]c2ccccc12)C(=O)O)C(=O)O [R,R monatin]",sweetness compared to sucrose by weight,[1],2000-2400 times sweeter than sucrose by weight
"COC(=O)[C@H](Cc1ccccc1)NC(=O)[C@@H](N)CC(=O)O [Aspartame, reference compound] (H-Asp-Phe-OMe)",Comments (sensory evaluation),"[2]; Coffee, Aspartame 250 ppm",Balanced sweetness profile. Very low level
same,SEV Aspartame (% sucrose),"[3]; pH 2.5, 40° C., day 0, aspartame 400 ppm",7.34 % sucrose
same,Retention of Aspartame Sweetness (%),[3]; [4],94.0%
same,SEV Aspartame (% sucrose),[3]; [4],6.90 % sucrose
same,Retention of Aspartame Sweetness (%),[3]; [5],92.6%
same,SEV Aspartame (% sucrose),[3]; [5],6.80 % sucrose
same,Retention of Aspartame Sweetness (%),[3]; [6],89.9%
same,SEV Aspartame (% sucrose),[3]; [6],6.60 % sucrose
same,Retention of Aspartame Sweetness (%),[3]; [7],85.7%
same,SEV Aspartame (% sucrose),[3]; [7],6.29 % sucrose
same,Retention of Aspartame Sweetness (%),[3]; [8],81.9%
same,SEV Aspartame (% sucrose),[3]; [8],6.01 % sucrose
same,Retention of Aspartame Sweetness (%),[3]; [9],81.5%
same,SEV Aspartame (% sucrose),[3]; [9],5.98 % sucrose
same,Retention of Aspartame Sweetness (%),[3]; [10],81.3%
same,SEV Aspartame (% sucrose),[3]; [10],5.97 % sucrose
same,Retention of Aspartame Sweetness (%),[3]; [11],79.8%
same,SEV Aspartame (% sucrose),[3]; [11],5.86 % sucrose
same,Retention of Aspartame Sweetness (%),[3]; [12],57.1%
same,SEV Aspartame (% sucrose),[3]; [12],4.19 % sucrose
same,Retention of Aspartame Sweetness (%),[3]; [13],10.9%
same,SEV Aspartame (% sucrose),[3]; [13],0.80 % sucrose
same,Rate constant (k; day^−1) of sweetness loss,"[3]; pH 2.5, 40° C.",0.013 day⁻¹
same,Sweetness Retained (%),"[3]; pH 2.5, 100 days storage at 40° C.",11%
same,SEV Aspartame (% sucrose),"[3]; pH 3.0, 40° C., day 0, aspartame 400 ppm",7.15 % sucrose
same,Retention of Aspartame Sweetness (%),[3]; [14],96.5%
same,SEV Aspartame (% sucrose),[3]; [14],6.90 % sucrose
same,Retention of Aspartame Sweetness (%),[3]; [15],96.1%
same,SEV Aspartame (% sucrose),[3]; [15],6.87 % sucrose
same,Retention of Aspartame Sweetness (%),[3]; [16],92.3%
same,SEV Aspartame (% sucrose),[3]; [16],6.60 % sucrose
same,Retention of Aspartame Sweetness (%),[3]; [17],89.9%
same,SEV Aspartame (% sucrose),[3]; [17],6.43 % sucrose
same,Retention of Aspartame Sweetness (%),[3]; [18],86.3%
same,SEV Aspartame (% sucrose),[3]; [18],6.17 % sucrose
same,Retention of Aspartame Sweetness (%),[3]; [19],82.9%
same,SEV Aspartame (% sucrose),[3]; [19],5.93 % sucrose
same,Retention of Aspartame Sweetness (%),[3]; [20],83.1%
same,SEV Aspartame (% sucrose),[3]; [20],5.94 % sucrose
same,Retention of Aspartame Sweetness (%),[3]; [21],81.5%
same,SEV Aspartame (% sucrose),[3]; [21],5.83 % sucrose
same,Retention of Aspartame Sweetness (%),[3]; [22],65.9%
same,SEV Aspartame (% sucrose),[3]; [22],4.71 % sucrose
same,Retention of Aspartame Sweetness (%),[3]; [23],30.8%
same,SEV Aspartame (% sucrose),[3]; [23],2.20 % sucrose
same,Rate constant (k; day^−1) of sweetness loss,"[3]; pH 3.0, 40° C.",0.009 day⁻¹
same,Sweetness Retained (%),"[3]; pH 3.0, 100 days storage at 40° C.",31%
same,SEV Aspartame (% sucrose),"[3]; pH 4.0, 40° C., day 0, aspartame 400 ppm",7.10 % sucrose
same,Retention of Aspartame Sweetness (%),[3]; [24],95.1%
same,SEV Aspartame (% sucrose),[3]; [24],6.75 % sucrose
same,Retention of Aspartame Sweetness (%),[3]; [25],87.8%
same,SEV Aspartame (% sucrose),[3]; [25],6.23 % sucrose
same,Retention of Aspartame Sweetness (%),[3]; [26],84.8%
same,SEV Aspartame (% sucrose),[3]; [26],6.02 % sucrose
same,Retention of Aspartame Sweetness (%),[3]; [27],81.0%
same,SEV Aspartame (% sucrose),[3]; [27],5.75 % sucrose
same,Retention of Aspartame Sweetness (%),[3]; [28],82.4%
same,SEV Aspartame (% sucrose),[3]; [28],5.85 % sucrose
same,Retention of Aspartame Sweetness (%),[3]; [29],74.5%
same,SEV Aspartame (% sucrose),[3]; [29],5.29 % sucrose
same,Retention of Aspartame Sweetness (%),[3]; [30],57.7%
same,SEV Aspartame (% sucrose),[3]; [30],4.10 % sucrose
same,Rate constant (k; day^−1) of sweetness loss,"[3]; pH 4.0, 40° C.",0.005 day⁻¹
same,Sweetness Retained (%),"[3]; pH 4.0, 100 days storage at 40° C.",58%
OC[C@H]1O[C@H](O[C@]2(CCl)O[C@H](CCl)[C@@H](O)[C@@H]2O)[C@H](O)[C@@H](O)[C@H]1Cl [Sucralose],Comments (sensory evaluation),"[2]; Coffee, Sucralose 82 ppm",Slow sweetness onset allows stronger
same,Comments (sensory evaluation),"[2]; Iced Tea, Sucralose 170 ppm",Delay in sweetness onset means first
"NC(CC(O)(Cc1c[nH]c2ccccc12)C(=O)O)C(=O)O (centres unmarked) [S,S monatin]",sweetness compared to sucrose by weight,[1],50-200 times sweeter than sucrose by weight
